In patent US20110130450A1, “PRAVASTATIN EXTRACTION” (priority 2008, published 2011):

Key:
Type in all cases: physicochemical
[1] = Multi stage cross-current back-extraction from ethyl acetate at pH 5.9, distribution coefficient by HPLC; details: water/ethyl acetate
Method: (§1) HPLC analysis was based on reversed phase liquid chromatography followed by UV-detection at 238 nm. Apparatus: Dionex HPLC-UV system comprising of a P680 pump, a TCC-100 column compartment with thermostat, a WPS-3000 auto sampler and a UVD34OU PDA detector.
(§2) pH values mentioned in the description and claims of the present application were measured using a Radiometer PHM82 standard pH meter equipped with a Mettler Toledo Inlab 412 pH electrode (electrolyte 9823). Equilibration was carried out at 20±1° C. using a Merck pH 4.00 buffer (art. nr. 1.09435.1000) and a Merck pH 7.00 buffer (art. nr. 1.09439.1000).
Starting material for this experiment was broth filtrate, obtained after ultra-filtration of broth obtained by fermentation of Penicillium chrysogenum transformant T1.48 as described in Example 4 of WO 2007/147827 using a 50 nm poly-sulfone membrane. The filtrate (5.25 liter, containing 1.2 g/l pravastatin and 0.37 g/l compactin) was extracted twice with ethyl acetate (2×2.5 liter) at pH 4. For a clear phase separation, the organic phases were filtered through a Seitz Z-2000 filter plate. The extraction yields were 90.6% and 8.3% respectively, so the overall extraction yield was 98.9%. The organic phases were combined and washed with water (2.5 liter), giving ethyl acetate extract (4.65 liter, yield over the wash step 97%) which was concentrated to 250 ml under vacuum at T<40° C., giving a clear solution containing ˜25 g/l pravastatin. This solution was extracted three times with water (3×250 ml) at pH 5.9. The pH was adjusted with 4N sodium hydroxide. The aqueous and organic phases were analyzed with HPLC (Table 4). As can be calculated, after the second back-extraction the total extraction yield of pravastatin in the combined aqueous phases was 91% pravastatin and after the third back-extraction the total extraction yield of pravastatin in the combined aqueous phases was 96%. The ratio pravastatin:compactin was 3:1 in the starting mixture, 26:1 after one back-extraction, 19:1 after two back-extractions and 17:1 after three back-extractions.

[2] = Batch-wise single stage back-extraction from ethyl acetate into water, distribution coefficient by HPLC
Method: as §1, §2
A broth obtained by fermentation of Penicillium chrysogenum transformant T1.48 as described in Example 4 of WO 2007/147827 (2 liter, containing 2.5 g/kg pravastatin and 0.8 g/kg compactin) was centrifuged and the supernatant was divided into 2 portions of 800 ml. One of these portions of supernatant (800 ml), ethyl acetate (800 ml) and dicalite 448 (20 g) were mixed and the pH was adjusted to 4 with 6N sulfuric acid. The mixture was filtered over a Seitz Z-2000 filter plate. The phases of the filtrate were separated and the organic phase was washed once with water (400 ml), giving an ethyl acetate extract (700 ml) which was divided into eight portions of 80 ml and one of 60 ml. Each portion was mixed with an equal volume of water at a certain pH, varying from 4.5 to 8. After mixing, the phases were separated and analyzed by HPLC.

[3] = Multi stage cross-current back-extraction from isobutyl acetate at pH 6, distribution coefficient by HPLC; details: water/isobutyl acetate
Method: as §1, §2
Starting material for this experiment was broth filtrate, obtained after ultra-filtration of broth obtained by fermentation of Penicillium chrysogenum transformant T1.48 as described in Example 4 of WO 2007/147827 using a 50 nm poly-sulfone membrane. The filtrate (2 liter, containing 1.2 g/l pravastatin and 0.37 g/l compactin) was extracted twice with isobutyl acetate (2×1 liter) at pH 4. For a clear phase separation, the organic phases were filtered through a Seitz Z-2000 filter plate. The organic phases were combined and washed with water (500 ml), giving isobutyl acetate extract (1960 ml) which was concentrated to 100 ml under vacuum at T<40° C. The concentrate was decolorized using a coal cartridge filled with Cuno C55 carbon (1.8 g carbon; diameter of carbon plate 18 cm^2). After rinsing a clear solution (150 ml) was obtained containing ˜12 g/l pravastatin and 3.8 g/l compactin. This solution was extracted three times with water (3×150 ml) at pH 6. The pH was adjusted with 25% ammonia. The aqueous and organic phases were analyzed with HPLC (Table 3). As can be calculated, after the second back-extraction the total extraction yield of pravastatin in the combined aqueous phases was 97.6% pravastatin and after the third back-extraction the total extraction yield of pravastatin in the combined aqueous phases was 99.6%. The ratio pravastatin:compactin was 3:1 in the starting mixture, 45:1 after one back-extraction, 25:1 after two back-extractions and 17:1 after three back-extractions.

[4] = Batch-wise single stage back-extraction from methyl isobutyl ketone into water, distribution coefficient by HPLC
Method: as §1, §2
One of the portions of supernatant (800 ml) obtained in Example 1, methyl isobutyl ketone (800 ml) and dicalite 448 (20 g) were mixed and the pH was adjusted to 4 with 6N sulfuric acid. The mixture was filtered over a Seitz Z-2000 filter plate. The phases of the filtrate were separated and the organic phase was washed once with water (400 ml), giving a methyl isobutyl ketone extract (750 ml) from which eight portions of 80 ml were taken. Each portion was mixed with an equal volume of water at a certain pH, varying from 4.5 to 8. After mixing, the phases were separated and analyzed by HPLC.

| Compound | Distribution coefficient (CAqueous phase/COrganic phase) ([1]; pH 5.9, 1st extraction) | Distribution coefficient (CAqueous phase/COrganic phase) ([1]; pH 5.9, 2nd extraction) | Distribution coefficient (CAqueous phase/COrganic phase) ([1]; pH 5.9, 3rd extraction) | Distribution coefficient (CAqueous phase/COrganic phase) ([2]; pH 4.5) | Distribution coefficient (CAqueous phase/COrganic phase) ([2]; pH 5) | Distribution coefficient (CAqueous phase/COrganic phase) ([2]; pH 5.5) | Distribution coefficient (CAqueous phase/COrganic phase) ([2]; pH 6) | Distribution coefficient (CAqueous phase/COrganic phase) ([2]; pH 6.25) | Distribution coefficient (CAqueous phase/COrganic phase) ([2]; pH 6.5) | Distribution coefficient (CAqueous phase/COrganic phase) ([2]; pH 7) | Distribution coefficient (CAqueous phase/COrganic phase) ([2]; pH 7.5) | Distribution coefficient (CAqueous phase/COrganic phase) ([2]; pH 8) | Distribution coefficient (CAqueous phase/COrganic phase) ([3]; pH 6, 1st extraction) | Distribution coefficient (CAqueous phase/COrganic phase) ([3]; pH 6, 2nd extraction) | Distribution coefficient (CAqueous phase/COrganic phase) ([3]; pH 6, 3rd extraction) | Distribution coefficient (CAqueous phase/COrganic phase) ([4]; pH 4.5) | Distribution coefficient (CAqueous phase/COrganic phase) ([4]; pH 5) | Distribution coefficient (CAqueous phase/COrganic phase) ([4]; pH 5.5) | Distribution coefficient (CAqueous phase/COrganic phase) ([4]; pH 6) | Distribution coefficient (CAqueous phase/COrganic phase) ([4]; pH 6.5) | other results |
| --- | --- | --- | --- | --- | --- | --- | --- | --- | --- | --- | --- | --- | --- | --- | --- | --- | --- | --- | --- | --- | --- |
| CC[C@H](C)C(=O)O[C@H]1CCC=C2C=C[C@H](C)[C@H](CC[C@@H](O)C[C@@H](O)CC(=O)[O-])[C@H]21.[Na+] [Comp, compactin] | 0.08 | 0.06 | 0.03 | 0.0 | 0.0 | 0.0 | 0.0 | 0.0 | 0.1 | 0.3 | 0.8 | 2.9 | 0.06 | 0.07 | 0.07 | 0.0 | 0.0 | 0.0 | 0.0 | 0.1 | Distribution coefficient (CAqueous phase/COrganic phase) ([4]; pH 7): 0.2; Distribution coefficient (CAqueous phase/COrganic phase) ([4]; pH 7.5): 0.9; Distribution coefficient (CAqueous phase/COrganic phase) ([4]; pH 8): 3.3 |
| CC[C@H](C)C(=O)O[C@H]1C[C@H](O)C=C2C=C[C@H](C)[C@H](CC[C@@H](O)C[C@@H](O)CC(=O)[O-])[C@H]21.[Na+] [Prava, pravastatin] | 1.5 | 1.9 | 0.7 | 0.1 | 0.2 | 0.4 | 1.2 | 1.9 | 3.5 | 10.3 | 27.4 | 94.1 | 4.8 | 5.9 | 5.2 | 0.2 | 0.2 | 0.6 | 1.4 | 4.0 | Distribution coefficient (CAqueous phase/COrganic phase) ([4]; pH 7): 12.0; Distribution coefficient (CAqueous phase/COrganic phase) ([4]; pH 7.5): 37.5; Distribution coefficient (CAqueous phase/COrganic phase) ([4]; pH 8): 83.8 |
